PMC12446476 (Nature Communications, 2025)
Where “and” joins values, the source holds several entries; their conditions need not be identical. Equal entries are not always repeated. Where two headings read alike, the source gives them in different places.

Tests used:
[1] = test system: Salmonella typhimurium (TA1535, TA1537, TA98 and TA100); assay type: cell-based
Method: (§1) Ames assays were performed using four strains of Salmonella typhimurium (TA1535, TA1537, TA98 and TA100) and a single strain of E. coli (WRP2 uvrA) in the presence and absence of S9 tissue homogenate. Dose levels (µg/plate) up to 4000 were assessed for WP2 uvrA and TA98, 500 for TA1535, 250 for TA1537 and 62.5 for TA100.

[2] = test system: E. coli WP2 uvrA; experiment: Ames assay, E. coli strain; assay type: cell-based; conditions: with S9, positive control 1, 2 or 20 µg/plate
Method: as §1

[3] = test system: intracellular N. gonorrhoeae; experiment: Intracellular killing in HeLa229 cells; assay type: cell-based, Neisseria gonorrhoeae; conditions: dilution 0, replicates 1-3, counts 1-2
Method: Intracellular killing was assessed within HeLa229 cells (European Collection of Authenticated Cell Cultures, London, UK) that were seeded at ~3 × 10^5 cells/mL and grown to 70–80% confluence in RPMI-glutamine media supplemented with 10% (v/v) heat-inactivated fetal bovine serum (FBS, Gibco, MA, USA). Cells were incubated at 37 °C with 5% CO2 for 24 h, then washed with serum-free RPMI-1640 prior to infection. N. gonorrhoeae was scraped from agar plates and resuspended in Dulbecco’s Phosphate Buffered Saline (DPBS, Sigma-Aldrich), pelleted, then resuspended in RPMI with 2% FBS. Bacterial suspensions were used to infect HeLa229 cells at a multiplicity of infection of 100:1. Plates were briefly centrifuged (500 × g for 5 min), then incubated for one hour. This incubation and all subsequent incubations were performed at 37 °C with 5% CO2. Non-adherent cells were removed by washing with serum-free RPMI, and the remaining extracellular bacteria were killed via resuspension in RPMI-glutamine supplemented with 2% FBS and 200 μg/mL gentamycin and incubation for one hour. […] Azithromycin-treated samples were included for control/comparison. […] Samples were diluted and plated onto chocolate II agar for viable bacteria quantification. Intracellular killing assays were performed at Microbiologics, Kalamazoo, MI, USA, using a method adapted from previous studies[68],[69].

[4] = test system: N. gonorrhoeae; experiment: In vitro selection of mutants with reduced susceptibility; assay type: cell-based, Neisseria gonorrhoeae
Method: N. gonorrhoeae strains were grown overnight on chocolate agar plates, as described above. […] Plates were incubated at 35 ± 2 °C in a humid 5% CO2–enriched atmosphere for 48–72 h.

[5] = test system: human lymphocytes; experiment: In vitro micronucleus test; assay type: cell-based; conditions: for Micronucleated cells: 1000 scored cells
[6] = test system: S. aureus ATCC 29213; experiment: S. aureus neutropenic murine thigh infection model; assay type: in vivo, mouse; conditions: ICR mice, 100 mg/kg PO, TID, 48h; 100 mg/kg
Method: The S. aureus neutropenic murine thigh infection model was performed in accordance with the Guide for Care and Use of Laboratory Animals[75]. Animal rooms were maintained at a temperature range of 20–24 °C and humidity between 30% and 70%, with 12 h light/dark cycles. Female ICR mice (BioLASCO Taiwan Co., Ltd.) were rendered neutropenic via IP injection of cyclophosphamide four days before infection (150 mg/kg) and again one day before infection (100 mg/kg). Animals were anaesthetised with isoflurane (3–5%), then inoculated intramuscularly with S. aureus ATCC 29213 (~1 × 10^5 CFU/mouse). […] Animals were sacrificed via CO2 asphyxiation at either 2 h (baseline), 26 and/or 50 h post-infection. Thigh tissues were harvested and homogenised in 3 mL sterile PBS (pH 7.4). Bacterial burdens were determined by performing 10-fold serial dilutions and plating on nutrient agar plates.

[7] = TA98, with S9, positive control 1, 2 or 20 µg/plate
[8] = TA100, with S9, positive control 1, 2 or 20 µg/plate
[9] = TA1535, with S9, positive control 1, 2 or 20 µg/plate
[10] = TA1537, with S9, positive control 1, 2 or 20 µg/plate
[11] = Suppl. Table 4, 31 h treatment, without S9, 31 h sampling, 0.08 µg/mL
[12] = Suppl. Table 5, 31 h treatment, without S9, 31 h sampling, 0.04 µg/mL
[13] = Suppl. Table 4, 3 h treatment, with S9, 32 h sampling, 15 µg/mL
[14] = Suppl. Table 5, 3 h treatment, with S9, 32.5 h sampling, 20 µg/mL

## Nc1ccc2cc3ccccc3cc2c1 [2-Aminoanthracene, reference compound]
[1]; [7]
  Ames bacterial mutation assessment, Mean: 515
  Colony count: 486 and 532 and 526
[1]; [8]
  Ames bacterial mutation assessment, Mean: 1256
  Colony count: 1316 and 1188 and 1256
[1]; [9]
  Ames bacterial mutation assessment, Mean: 104
  Colony count: 93 and 104 and 116
[1]; [10]
  Ames bacterial mutation assessment, Mean: 95
  Colony count: 90 and 94 and 102
[2]
  Ames bacterial mutation assessment, Mean: 187
  Colony count: 181 and 184 and 195

## CC[C@H]1OC(=O)[C@H](C)[C@@H](O[C@H]2C[C@@](C)(OC)[C@@H](O)[C@H](C)O2)[C@H](C)[C@@H](O[C@@H]2O[C@H](C)C[C@H](N(C)C)[C@H]2O)[C@](C)(O)C[C@@H](C)CN(C)[C@H](C)[C@@H](O)[C@]1(C)O [Azithryomycin]
[3]; isolate ATCC 49226, 3 hr, 2X MIC
  Colony forming units (CFU) of N. gonorrhoeae internalised in HeLa229 cells, colony count: 19 CFU (2×) and 22 CFU and 27 CFU and 29 CFU and 32 CFU
[3]; isolate ATCC 49226, 3 hr, 4X MIC
  Colony forming units (CFU) of N. gonorrhoeae internalised in HeLa229 cells, colony count: 28 CFU and 29 CFU and 24 CFU (2×) and 32 CFU and 22 CFU
[3]; isolate ATCC 49226, 3 hr, 8X MIC
  Colony forming units (CFU) of N. gonorrhoeae internalised in HeLa229 cells, colony count: 20 CFU and 26 CFU and 27 CFU and 18 CFU and 28 CFU and 17 CFU
[3]; isolate ATCC 49226, 6 hr, 2X MIC
  Colony forming units (CFU) of N. gonorrhoeae internalised in HeLa229 cells, colony count: 1 CFU (3×) and 3 CFU and 2 CFU (2×)
[3]; isolate ATCC 49226, 6 hr, 4X MIC
  Colony forming units (CFU) of N. gonorrhoeae internalised in HeLa229 cells, colony count: 0 CFU (2×) and 1 CFU and 3 CFU (2×) and 5 CFU
[3]; isolate ATCC 49226, 6 hr, 8X MIC
  Colony forming units (CFU) of N. gonorrhoeae internalised in HeLa229 cells, colony count: 1 CFU (3×) and 2 CFU (3×)
[3]; isolate ATCC 49226, 10 hr, 2X MIC
  Colony forming units (CFU) of N. gonorrhoeae internalised in HeLa229 cells, colony count: 0 CFU
[3]; isolate ATCC 49226, 10 hr, 4X MIC
  Colony forming units (CFU) of N. gonorrhoeae internalised in HeLa229 cells, colony count: 0 CFU
[3]; isolate ATCC 49226, 10 hr, 8X MIC
  Colony forming units (CFU) of N. gonorrhoeae internalised in HeLa229 cells, colony count: 0 CFU
[3]; isolate ATCC 49226, 24 hr, 2X MIC
  Colony forming units (CFU) of N. gonorrhoeae internalised in HeLa229 cells, colony count: 0 CFU
[3]; isolate ATCC 49226, 24 hr, 4X MIC
  Colony forming units (CFU) of N. gonorrhoeae internalised in HeLa229 cells, colony count: 0 CFU
[3]; isolate ATCC 49226, 24 hr, 8X MIC
  Colony forming units (CFU) of N. gonorrhoeae internalised in HeLa229 cells, colony count: 0 CFU
[3]; isolate NCTC 13820, 3 hr, 2X MIC
  Colony forming units (CFU) of N. gonorrhoeae internalised in HeLa229 cells, colony count: 12 CFU and 15 CFU and 33 CFU and 32 CFU and 27 CFU and 29 CFU
[3]; isolate NCTC 13820, 3 hr, 4X MIC
  Colony forming units (CFU) of N. gonorrhoeae internalised in HeLa229 cells, colony count: 21 CFU and 16 CFU and 33 CFU and 30 CFU and 20 CFU and 27 CFU
[3]; isolate NCTC 13820, 3 hr, 8X MIC
  Colony forming units (CFU) of N. gonorrhoeae internalised in HeLa229 cells, colony count: 20 CFU and 13 CFU and 26 CFU and 30 CFU (2×) and 21 CFU
[3]; isolate NCTC 13820, 6 hr, 2X MIC
  Colony forming units (CFU) of N. gonorrhoeae internalised in HeLa229 cells, colony count: 0 CFU (2×) and 1 CFU (2×) and 3 CFU (2×)
[3]; isolate NCTC 13820, 6 hr, 4X MIC
  Colony forming units (CFU) of N. gonorrhoeae internalised in HeLa229 cells, colony count: 0 CFU (2×) and 1 CFU and 3 CFU

## O=C(O)c1cn(C2CC2)c2cc(N3CCNCC3)c(F)cc2c1=O [Ciprofloxacin, reference compound]
[4]; 6926, 4x MIC
  Mutants (colonies): 4
[4]; 6926, 8x MIC
  Mutants (colonies): 5
[4]; 6926, 16x MIC
  Mutants (colonies): 1
[4]; ATCC 700825, 4x MIC
  Mutants (colonies): 1
[4]; ATCC 700825, 8x MIC
  Mutants (colonies): 0
[4]; ATCC 700825, 16x MIC
  Mutants (colonies): 0

## COc1cc2c(c(OC)c1OC)-c1ccc(OC)c(=O)cc1[C@@H](NC(C)=O)CC2 [Colchicine]
[5]; -S9, treatment 31 h, harvest 31 h, positive control 0.04 µg/mL (Debio 1453 study)
  Incidence of micronucleated cells: 1.85%
[5]; -S9, treatment 31 h, harvest 31 h, positive control 0.08 µg/mL (Debio 1453P study)
  Incidence of micronucleated cells: 3.35%
[5]; [11]
  Micronucleated cell percentage: 3.35%
  Micronucleated cells: 33 and 34
[5]; [12]
  Micronucleated cell percentage: 1.85%
  Micronucleated cells: 19 and 18

## O=P1(N(CCCl)CCCl)NCCCO1 (centres unmarked) [Cyclophosphamide]
[5]; +S9, treatment 3 h, harvest 32 h, positive control 15 µg/mL (Debio 1453P study)
  Incidence of micronucleated cells: 3.00%
[5]; +S9, treatment 3 h, harvest 32.5 h, positive control 20 µg/mL (Debio 1453 study)
  Incidence of micronucleated cells: 7.15%
[5]; [13]
  Micronucleated cell percentage: 3.00%
  Micronucleated cells: 21 and 39
[5]; [14]
  Micronucleated cell percentage: 7.15%
  Micronucleated cells: 78 and 65

## CC(=O)NC[C@H]1CN(c2ccc(N3CCOCC3)c(F)c2)C(=O)O1 [Linezolid, reference compound]
[6]
  CFU per thigh: 930 CFU per thigh and 510 CFU per thigh and 570 CFU per thigh and 750 CFU per thigh and 720 CFU per thigh
  Log10(CFU/Thigh): 2.968 Log10(CFU/Thigh) and 2.708 Log10(CFU/Thigh) and 2.756 Log10(CFU/Thigh) and 2.875 Log10(CFU/Thigh) and 2.857 Log10(CFU/Thigh)
